Experimental data reported in ChEMBL document CHEMBL1201862, “PubChem BioAssay data set” (2004).
Calls of active or inactive are those of the source.

Tests used:
Cytochrome P450 2C19 = Cytochrome P450 2C19 (Homo sapiens, UniProt P33261); test: qHTS Assay for Inhibitors and Substrates of Cytochrome P450 2C19. [Related pubchem assays: 410 ]; assay type: ADME; conditions: read-out: Potency
[1] = Late stage counterscreen results from the probe development effort to identify activators of signal transducer and activator of transcription 1 (STAT1): luminescence-based cell-based dose response assay to identify cytotoxic compounds.; assay type: functional
Ephrin type-A receptor 4 = Ephrin type-A receptor 4 (Mus musculus, UniProt Q03137); test: EphA4 ligand-binding antagonists – biochemical, colorimetric, mouse EphA4, primary screen (AID 689); assay type: functional
Sequence of Ephrin type-A receptor 4 (Q03137 whole entry): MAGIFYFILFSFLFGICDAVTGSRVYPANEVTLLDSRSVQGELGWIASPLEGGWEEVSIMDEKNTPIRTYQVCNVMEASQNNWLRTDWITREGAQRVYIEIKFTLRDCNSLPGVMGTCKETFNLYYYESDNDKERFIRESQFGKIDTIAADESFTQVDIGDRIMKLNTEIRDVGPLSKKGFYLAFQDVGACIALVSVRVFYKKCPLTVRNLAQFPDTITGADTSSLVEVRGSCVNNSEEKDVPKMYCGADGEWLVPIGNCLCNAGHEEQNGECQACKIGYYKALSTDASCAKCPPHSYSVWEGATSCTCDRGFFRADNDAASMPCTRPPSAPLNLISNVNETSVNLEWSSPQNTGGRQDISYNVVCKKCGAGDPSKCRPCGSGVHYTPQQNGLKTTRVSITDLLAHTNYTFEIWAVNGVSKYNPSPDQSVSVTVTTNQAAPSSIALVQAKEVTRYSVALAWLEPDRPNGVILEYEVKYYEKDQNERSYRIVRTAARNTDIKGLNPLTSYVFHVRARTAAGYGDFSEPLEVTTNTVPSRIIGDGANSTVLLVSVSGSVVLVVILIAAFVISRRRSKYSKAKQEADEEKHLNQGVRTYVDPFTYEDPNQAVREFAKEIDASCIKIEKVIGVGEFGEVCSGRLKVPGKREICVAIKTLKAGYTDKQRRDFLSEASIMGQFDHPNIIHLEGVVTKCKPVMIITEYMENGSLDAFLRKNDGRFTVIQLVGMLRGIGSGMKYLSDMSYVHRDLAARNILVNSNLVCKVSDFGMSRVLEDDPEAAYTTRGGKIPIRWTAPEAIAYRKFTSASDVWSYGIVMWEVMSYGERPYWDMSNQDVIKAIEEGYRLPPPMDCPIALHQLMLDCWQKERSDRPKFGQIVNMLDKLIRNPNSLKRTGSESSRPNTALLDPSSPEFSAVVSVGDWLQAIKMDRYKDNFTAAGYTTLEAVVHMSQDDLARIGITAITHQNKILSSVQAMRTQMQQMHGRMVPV

Paired box protein Pax-8 = Paired box protein Pax-8 (Homo sapiens, UniProt Q06710); test: PAX8 transcriptional activity inhibition in RMG-I – RMG-I cells, luciferase, cherry-pick, dose response (AID 687027); assay type: functional, cell-based;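 also: luciferase reporter driven by Pax8 target thyroperoxidase promoter measured by SteadyGlo luminescence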
[2] = general cell-killing toxicity readout – plate reader, dry powder samples, cytotoxicity control for PAX8 inhibitor project, dose response (AID 743021); assay type: functional, cell-based
[3] = biological target: T1, Zinc finger protein mex-5 (Caenorhabditis elegans, UniProt Q9XUB2); test: potency of MEX-5 RNA-binding blockers – biochemical, C. elegans, fluorescence polarization, dose response (AID 1960)
T1 sequence (Q9XUB2 whole entry): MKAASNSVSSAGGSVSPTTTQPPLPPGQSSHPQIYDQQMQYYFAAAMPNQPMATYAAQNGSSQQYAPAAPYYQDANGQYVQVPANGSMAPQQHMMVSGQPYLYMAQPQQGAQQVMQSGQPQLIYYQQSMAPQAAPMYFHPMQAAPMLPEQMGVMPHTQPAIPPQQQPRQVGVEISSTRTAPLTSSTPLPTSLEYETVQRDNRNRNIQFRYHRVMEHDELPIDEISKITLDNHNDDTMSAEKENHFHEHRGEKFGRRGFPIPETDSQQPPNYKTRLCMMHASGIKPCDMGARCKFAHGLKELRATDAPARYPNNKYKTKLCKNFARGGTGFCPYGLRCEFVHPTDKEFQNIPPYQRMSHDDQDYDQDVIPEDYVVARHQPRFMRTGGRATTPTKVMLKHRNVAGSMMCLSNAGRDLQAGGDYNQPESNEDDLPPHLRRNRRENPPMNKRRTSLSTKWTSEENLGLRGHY

Bcl-2-related protein A1 [4] = biological target: T2, Bcl-2-related protein A1 (Mus musculus, UniProt Q07440); test: displacement of Bid BH3 peptide from Bfl-1 – biochemical, fluorescence polarization, FITC-Bid, mouse, primary screen (AID 432)
T2 sequence (Q07440 whole entry): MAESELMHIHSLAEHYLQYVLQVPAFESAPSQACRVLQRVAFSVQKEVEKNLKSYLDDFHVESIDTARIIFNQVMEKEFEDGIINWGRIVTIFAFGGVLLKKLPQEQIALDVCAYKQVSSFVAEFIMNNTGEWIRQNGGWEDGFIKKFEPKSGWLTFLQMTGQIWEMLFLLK

Bcl-2-related protein A1 [5] = biological target: T2, Bcl-2-related protein A1; test: small-molecule antagonists of Bfl-1/BH3 interaction – biochemical, TR-FRET, mouse Bfl-1, confirmation (AID 621);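 also: TR-FRET binding of GST-Bfl-1 to FITC-labelled Bid peptide via terbium antibody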
[6] = biological target: G-protein coupled receptor 35 (Homo sapiens, UniProt Q9HC97); test: inhibition of zaprinast-stimulated GPR35 beta-arrestin translocation – imaging, U2OS, beta-arrestin-GFP, zaprinast agonist, primary screen (AID 2058); assay type: functional;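 also: antagonist potency meaning inhibition of agonist-induced arrestin redistribution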
Sequence of G-protein coupled receptor 35 (Q9HC97 whole entry, the tested form may be a part): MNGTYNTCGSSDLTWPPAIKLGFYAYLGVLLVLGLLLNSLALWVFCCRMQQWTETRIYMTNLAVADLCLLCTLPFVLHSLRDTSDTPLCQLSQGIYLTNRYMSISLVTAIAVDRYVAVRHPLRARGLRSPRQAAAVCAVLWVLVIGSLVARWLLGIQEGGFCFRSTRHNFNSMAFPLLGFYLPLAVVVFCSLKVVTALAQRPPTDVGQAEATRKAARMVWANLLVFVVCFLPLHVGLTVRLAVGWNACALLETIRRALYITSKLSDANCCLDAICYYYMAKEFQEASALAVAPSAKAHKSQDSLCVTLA

[7] = biological target: T3, RNA-binding protein pos-1 (Caenorhabditis elegans, UniProt G5EF15); test: disruptors of C. elegans POS-1 RNA interaction – biochemical, fluorescence polarization, dose response (AID 1964);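 also: purified POS-1 fused to maltose binding protein made in E. coli; potency of compounds blocking POS-1 binding to fluorescent RNA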
T3 sequence (G5EF15 whole entry): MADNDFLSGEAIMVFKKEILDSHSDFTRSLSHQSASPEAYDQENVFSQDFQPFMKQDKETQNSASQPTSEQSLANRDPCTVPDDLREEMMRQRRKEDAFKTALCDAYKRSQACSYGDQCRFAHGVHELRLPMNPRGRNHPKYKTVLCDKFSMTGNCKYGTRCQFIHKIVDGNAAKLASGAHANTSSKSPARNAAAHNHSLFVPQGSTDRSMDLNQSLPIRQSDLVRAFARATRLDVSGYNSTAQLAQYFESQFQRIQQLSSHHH

[8] = biological target: T4, Heat shock factor protein 1 (Mus musculus, UniProt P38532); test: enhancement of HSF1-driven luciferase signal – cell-based, NIH3T3, luminescence, dose retest, confirmation (AID 435004); assay type: functional;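 also: stress induced by proteasome inhibitor MG132 added 30 min after compound; luciferase reporter driven by HSF1 response element in NIH3T3 cells; actives raise luminescence as potentiators of the MG132 stress response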
T4 sequence (P38532 whole entry): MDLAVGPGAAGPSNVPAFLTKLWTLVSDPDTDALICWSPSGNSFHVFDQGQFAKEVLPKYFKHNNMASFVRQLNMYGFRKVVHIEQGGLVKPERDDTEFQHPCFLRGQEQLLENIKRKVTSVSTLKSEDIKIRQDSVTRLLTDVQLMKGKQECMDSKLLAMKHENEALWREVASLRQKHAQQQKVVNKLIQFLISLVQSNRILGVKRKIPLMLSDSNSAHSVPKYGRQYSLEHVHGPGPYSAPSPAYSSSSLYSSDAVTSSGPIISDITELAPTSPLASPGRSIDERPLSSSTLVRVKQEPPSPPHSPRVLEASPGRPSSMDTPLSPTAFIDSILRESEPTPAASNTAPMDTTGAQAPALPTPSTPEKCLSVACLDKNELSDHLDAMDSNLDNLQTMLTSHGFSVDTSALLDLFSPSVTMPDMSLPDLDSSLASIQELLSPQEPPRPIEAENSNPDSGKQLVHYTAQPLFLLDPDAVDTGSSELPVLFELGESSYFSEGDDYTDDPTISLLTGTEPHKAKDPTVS

[9] = biological target: Peroxisome proliferator-activated receptor gamma/Nuclear receptor coactivator 3 (Homo sapiens, UniProt P37231); test: TR-FRET dose response biochemical High Throughput Screening assay for agonists of the steroid receptor coactivator 3 (SRC-3) recruitment by the peroxisome proliferator-activated receptor gamma (PPAR gamma): non-selective agonists. [Related pubchem assays: 1301 (Confirmation screen.), 1048 (Primary screen.)]; assay type: functional
[10] = biological target: Photoreceptor-specific nuclear receptor (Homo sapiens, UniProt Q9Y5X4); test: ligands suppressing NR2E3 nuclear receptor activity – biochemical, TR-FRET, dose response (AID 463256); assay type: functional
Sequence of Photoreceptor-specific nuclear receptor (Q9Y5X4 whole entry): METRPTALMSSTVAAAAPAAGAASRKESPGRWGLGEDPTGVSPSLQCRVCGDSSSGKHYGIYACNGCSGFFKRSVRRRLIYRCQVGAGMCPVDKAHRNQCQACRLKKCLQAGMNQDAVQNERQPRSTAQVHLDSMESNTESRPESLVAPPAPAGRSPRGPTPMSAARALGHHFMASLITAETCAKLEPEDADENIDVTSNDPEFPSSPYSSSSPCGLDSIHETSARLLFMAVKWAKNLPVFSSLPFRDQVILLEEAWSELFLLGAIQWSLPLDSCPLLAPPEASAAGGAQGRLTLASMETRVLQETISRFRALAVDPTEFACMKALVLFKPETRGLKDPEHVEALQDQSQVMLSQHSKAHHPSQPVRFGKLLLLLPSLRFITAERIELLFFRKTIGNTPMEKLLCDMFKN

[11] = biological target: Peroxisome proliferator-activated receptor gamma/Nuclear receptor coactivator 2 (Homo sapiens, UniProt P37231); test: (§1) TR-FRET dose response biochemical High Throughput Screening assay for agonists of the steroid receptor coactivator 2 (SRC-2) recruitment by the peroxisome proliferator-activated receptor gamma (PPAR gamma): non-selective agonists. [Related pubchem assays: 1297, 1032 ]; assay type: functional
Sequence of Peroxisome proliferator-activated receptor gamma/Nuclear receptor coactivator 2 (P37231 whole entry): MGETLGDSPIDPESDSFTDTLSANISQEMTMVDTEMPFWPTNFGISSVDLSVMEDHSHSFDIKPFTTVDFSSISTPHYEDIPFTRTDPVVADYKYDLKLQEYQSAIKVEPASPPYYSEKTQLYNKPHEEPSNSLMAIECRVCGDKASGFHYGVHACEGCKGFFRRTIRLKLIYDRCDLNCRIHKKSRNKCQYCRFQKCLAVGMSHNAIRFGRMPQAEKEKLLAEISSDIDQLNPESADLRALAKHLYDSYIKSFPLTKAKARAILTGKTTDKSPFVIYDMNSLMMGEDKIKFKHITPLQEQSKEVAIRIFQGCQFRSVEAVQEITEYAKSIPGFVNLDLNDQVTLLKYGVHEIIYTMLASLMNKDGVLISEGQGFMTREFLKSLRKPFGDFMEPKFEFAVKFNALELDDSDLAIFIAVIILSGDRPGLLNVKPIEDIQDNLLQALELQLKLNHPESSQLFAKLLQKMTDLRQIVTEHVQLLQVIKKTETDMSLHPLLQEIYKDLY
Sequence of Peroxisome proliferator-activated receptor gamma/Nuclear receptor coactivator 2 (Q15596 whole entry, further chain): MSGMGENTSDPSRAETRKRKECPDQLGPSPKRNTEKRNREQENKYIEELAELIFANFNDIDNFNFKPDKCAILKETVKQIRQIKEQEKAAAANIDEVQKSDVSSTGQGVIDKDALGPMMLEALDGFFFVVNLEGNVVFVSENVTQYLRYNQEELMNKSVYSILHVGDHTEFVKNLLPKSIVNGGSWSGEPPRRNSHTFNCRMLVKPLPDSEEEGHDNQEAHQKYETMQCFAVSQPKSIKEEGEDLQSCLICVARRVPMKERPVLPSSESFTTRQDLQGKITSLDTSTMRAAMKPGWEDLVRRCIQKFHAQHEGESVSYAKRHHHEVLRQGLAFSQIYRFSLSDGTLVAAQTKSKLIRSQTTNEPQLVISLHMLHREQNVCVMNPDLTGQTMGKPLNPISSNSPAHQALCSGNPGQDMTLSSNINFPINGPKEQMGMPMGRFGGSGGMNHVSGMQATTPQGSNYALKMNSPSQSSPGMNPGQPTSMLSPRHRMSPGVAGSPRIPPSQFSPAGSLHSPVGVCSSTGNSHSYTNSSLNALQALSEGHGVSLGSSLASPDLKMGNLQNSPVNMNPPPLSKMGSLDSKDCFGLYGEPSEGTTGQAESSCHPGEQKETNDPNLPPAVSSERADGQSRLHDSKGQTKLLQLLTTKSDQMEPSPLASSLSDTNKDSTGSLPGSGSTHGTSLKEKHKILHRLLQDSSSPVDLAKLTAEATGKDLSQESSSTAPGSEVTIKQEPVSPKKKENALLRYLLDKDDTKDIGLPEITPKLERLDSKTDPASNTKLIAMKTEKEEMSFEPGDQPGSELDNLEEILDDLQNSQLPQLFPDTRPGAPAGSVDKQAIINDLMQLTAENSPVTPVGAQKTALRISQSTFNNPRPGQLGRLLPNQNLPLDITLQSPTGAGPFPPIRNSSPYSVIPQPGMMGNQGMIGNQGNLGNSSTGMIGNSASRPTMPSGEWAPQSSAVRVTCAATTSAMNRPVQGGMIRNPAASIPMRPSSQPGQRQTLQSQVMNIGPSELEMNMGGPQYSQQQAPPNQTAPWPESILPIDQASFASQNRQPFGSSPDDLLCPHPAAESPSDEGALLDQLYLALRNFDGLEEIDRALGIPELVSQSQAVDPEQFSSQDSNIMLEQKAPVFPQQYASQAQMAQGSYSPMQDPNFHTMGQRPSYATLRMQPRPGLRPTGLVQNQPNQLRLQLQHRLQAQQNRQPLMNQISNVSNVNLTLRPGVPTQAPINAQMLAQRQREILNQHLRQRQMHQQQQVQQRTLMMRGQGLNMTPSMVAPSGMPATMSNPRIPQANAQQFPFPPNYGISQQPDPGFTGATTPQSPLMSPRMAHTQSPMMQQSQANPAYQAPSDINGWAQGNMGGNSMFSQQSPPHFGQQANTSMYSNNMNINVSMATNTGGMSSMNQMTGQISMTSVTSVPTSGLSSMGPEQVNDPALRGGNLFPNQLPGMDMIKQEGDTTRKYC

[12] = biological target: Peroxisome proliferator-activated receptor gamma/Nuclear receptor corepressor 2 (Homo sapiens, UniProt P37231+Q9Y618); test: Counterscreen for NR2E3 inverse agonists: TR-FRET-based biochemical high throughput dose response assay to identify inverse agonists of the interaction between peroxisome proliferator-activated receptor gamma (PPARg) and nuclear receptor co-repressor 2 (NCOR2).; assay type: functional
[13] = biological target: Peroxisome proliferator-activated receptor gamma/Nuclear receptor coactivator 1 (Homo sapiens, UniProt P37231); test: as §1, with “1 (SRC-1)” for “2 (SRC-2)”, “assays (depositor defined):AID1300, AID1808, AID504735, AID631]” for “assays: 1297, 1032 ]”; assay type: protein assay
Leucine aminopeptidase = biological target: T5, Leucine aminopeptidase (Plasmodium falciparum 3D7, UniProt Q8IL11); test: P. falciparum M17LAP inhibitors, primary screen, biochemical, fluorogenic H-Leu-NHMec substrate, 1536-well (AID 1619); assay type: functional
T5 sequence (Q8IL11 whole entry): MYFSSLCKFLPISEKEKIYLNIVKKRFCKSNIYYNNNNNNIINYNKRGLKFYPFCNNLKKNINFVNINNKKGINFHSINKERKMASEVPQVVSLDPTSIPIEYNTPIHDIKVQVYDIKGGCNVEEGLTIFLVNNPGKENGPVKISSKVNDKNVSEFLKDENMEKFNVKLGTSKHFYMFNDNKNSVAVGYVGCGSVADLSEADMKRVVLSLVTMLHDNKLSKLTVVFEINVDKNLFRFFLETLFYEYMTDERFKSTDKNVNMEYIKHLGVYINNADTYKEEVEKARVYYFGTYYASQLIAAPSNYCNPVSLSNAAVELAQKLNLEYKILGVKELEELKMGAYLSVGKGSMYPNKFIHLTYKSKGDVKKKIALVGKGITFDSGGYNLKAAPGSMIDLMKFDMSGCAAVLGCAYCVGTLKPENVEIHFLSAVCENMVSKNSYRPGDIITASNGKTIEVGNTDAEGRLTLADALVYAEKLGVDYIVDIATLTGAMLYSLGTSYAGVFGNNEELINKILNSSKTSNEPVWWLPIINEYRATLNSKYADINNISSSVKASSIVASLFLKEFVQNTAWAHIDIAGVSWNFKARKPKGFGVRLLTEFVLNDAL

[14] = Luminescent dose response cell-based high throughput screening assay for inhibitors of the Janus kinase 2 mutant JAK2V617F. [Related pubchem assays: 1446 (Primary screen.), 1521 (Confirmation assay.), 1486 (Counter screen.)]; assay type: functional
[15] = biological target: T6, Rac GTPase-activating protein 1 (Homo sapiens, UniProt Q9H0H5); test: blockers of MgcRacGAP-driven Rac1 GTP hydrolysis – biochemical, ADP Hunter fluorescence, primary and confirmatory, confirmation (AID 624330); assay type: functional
T6 sequence (Q9H0H5 whole entry): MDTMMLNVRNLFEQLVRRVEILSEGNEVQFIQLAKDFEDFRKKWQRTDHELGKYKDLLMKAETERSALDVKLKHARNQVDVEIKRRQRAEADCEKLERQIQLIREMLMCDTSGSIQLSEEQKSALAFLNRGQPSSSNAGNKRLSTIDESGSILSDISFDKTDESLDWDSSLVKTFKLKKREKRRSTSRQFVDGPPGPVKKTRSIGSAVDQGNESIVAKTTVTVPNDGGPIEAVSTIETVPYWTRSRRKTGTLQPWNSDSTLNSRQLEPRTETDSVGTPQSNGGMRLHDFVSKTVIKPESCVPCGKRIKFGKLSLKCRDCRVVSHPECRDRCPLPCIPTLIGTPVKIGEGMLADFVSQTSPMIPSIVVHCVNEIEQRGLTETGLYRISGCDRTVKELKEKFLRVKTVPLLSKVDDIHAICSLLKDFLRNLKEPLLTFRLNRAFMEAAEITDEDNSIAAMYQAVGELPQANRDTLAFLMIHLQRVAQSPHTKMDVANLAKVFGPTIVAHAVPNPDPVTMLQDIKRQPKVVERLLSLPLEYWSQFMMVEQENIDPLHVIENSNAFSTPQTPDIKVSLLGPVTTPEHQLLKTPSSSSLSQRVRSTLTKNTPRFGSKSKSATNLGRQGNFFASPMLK

[16] = biological target: FAD-linked sulfhydryl oxidase ALR (Homo sapiens, UniProt P55789); test: ALR-catalysed DTT oxidation blockers – biochemical, H2O2 detection, luminescence, cherry-pick, dose response (AID 493248)
Large T antigen = Large T antigen (Simian virus 40, UniProt P03070); assay type: functional, Betapolyomavirus macacae;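 also: Confirmatory-stage PubChem screen for compounds that inhibit SV40 T antigen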
Sequence of Large T antigen (P03070 whole entry): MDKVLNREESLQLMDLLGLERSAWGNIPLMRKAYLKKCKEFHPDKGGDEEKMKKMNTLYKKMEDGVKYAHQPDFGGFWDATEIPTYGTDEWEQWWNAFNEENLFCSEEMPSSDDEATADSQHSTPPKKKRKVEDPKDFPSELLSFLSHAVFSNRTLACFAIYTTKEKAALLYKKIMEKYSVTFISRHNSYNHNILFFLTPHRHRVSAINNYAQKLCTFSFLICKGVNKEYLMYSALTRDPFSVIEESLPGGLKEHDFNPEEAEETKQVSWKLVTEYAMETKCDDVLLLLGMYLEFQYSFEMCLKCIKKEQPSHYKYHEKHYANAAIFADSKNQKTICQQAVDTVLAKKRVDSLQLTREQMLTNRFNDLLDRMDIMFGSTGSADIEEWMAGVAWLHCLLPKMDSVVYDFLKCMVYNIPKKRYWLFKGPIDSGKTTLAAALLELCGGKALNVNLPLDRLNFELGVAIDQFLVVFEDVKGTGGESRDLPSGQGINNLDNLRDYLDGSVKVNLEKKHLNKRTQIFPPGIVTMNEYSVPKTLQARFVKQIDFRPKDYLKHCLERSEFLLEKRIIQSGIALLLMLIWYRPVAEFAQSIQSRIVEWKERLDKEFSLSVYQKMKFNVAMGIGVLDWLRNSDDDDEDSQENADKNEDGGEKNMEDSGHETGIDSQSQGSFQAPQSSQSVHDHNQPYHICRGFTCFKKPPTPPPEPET

Heat shock protein HSP90 = Heat shock protein HSP90 (Homo sapiens, UniProt P07900+P08238); test: Hsp90 blockade concentration-response – dose response (AID 712); assay type: functional
[17] = Luminescence Cell-Based Dose Response HTS to Identify Inhibitors of 5'UTR Stem-Loop Driven Prion Protein mRNA Translation in H4 Neuroglioblastoma Cells. [Related pubchem assays: 1827 (Project Summary), 1813 (Primary HTS)]; assay type: functional
Danio rerio = test: In Vivo Angiogenesis Dose-Response Confirmation. [Related pubchem assays: 732 (Assay preceding this confirmatory assay.)]; assay type: functional, organism-based
[18] = luciferase reporter signal suppression in cells – H4 neuroglioma cells, luminescence, dose response (AID 1990); assay type: functional, cell-based
Cytochrome P450 3A4 = Cytochrome P450 3A4 (Homo sapiens, UniProt P08684);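 also: CYP3A4 tested as one member of a cytochrome P450 panel screen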
Sequence of Cytochrome P450 3A4 (P08684 whole entry): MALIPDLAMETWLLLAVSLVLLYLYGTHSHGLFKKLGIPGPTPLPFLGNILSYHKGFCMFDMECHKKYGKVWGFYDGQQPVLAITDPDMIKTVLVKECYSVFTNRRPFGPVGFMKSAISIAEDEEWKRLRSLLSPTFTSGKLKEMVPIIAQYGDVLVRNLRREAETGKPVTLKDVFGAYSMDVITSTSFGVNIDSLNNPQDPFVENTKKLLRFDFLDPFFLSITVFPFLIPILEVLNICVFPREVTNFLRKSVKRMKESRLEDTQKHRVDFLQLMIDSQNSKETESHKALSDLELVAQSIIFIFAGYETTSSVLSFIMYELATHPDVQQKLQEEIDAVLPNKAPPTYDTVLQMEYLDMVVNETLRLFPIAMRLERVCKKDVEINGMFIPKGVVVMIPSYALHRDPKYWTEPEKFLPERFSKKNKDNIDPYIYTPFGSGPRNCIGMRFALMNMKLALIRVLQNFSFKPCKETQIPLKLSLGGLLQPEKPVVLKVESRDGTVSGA

COc1cc2oc(-c3ccccc3)cc(=O)c2cc1OC
AC50 (Cytochrome P450 2C19): 31.6 µM (inconclusive)

Cc1ccc(C(=O)Nc2nc3ccccc3s2)s1
IC50 [1]: > 55.7 µM (not active)

FC(F)(F)c1nnc2c(Sc3ccccn3)nc3ccccc3n12
IC50 (Ephrin type-A receptor 4): > 100 µM (not active)
AC50 (Paired box protein Pax-8): 7.08 µM (active)
AC50 [2]: 55.5 µM (active)

CN1CC=C2C(C#N)=C(N)C(C#N)(C#N)C(c3cccc(Cl)c3Cl)C2C1 (stereo unspecified)
EC50 [3]: 13.5 µM (active)
IC50 (Bcl-2-related protein A1 [4]): > 100 µM (not active)
IC50 (Bcl-2-related protein A1 [5]): > 100 µM (not active)
IC50 [6]: 12 µM (inactive)
EC50 [7]: 14.4 µM (active)
EC50 [8]: > 260 µM (inactive)

Cc1ccc(S(=O)(=O)Nc2cnn(-c3ccccc3)c(=O)c2Cl)cc1
EC50 [9]: > 79.4 µM (not active)
IC50 [10]: > 39.8 µM (not active)
EC50 [11]: 19.2 µM (not active)
IC50 [12]: > 39.8 µM (not active)
EC50 [13]: > 79.4 µM (inactive)

CCCc1nc2ccccc2c(=O)n1/N=C/c1ccc(O)c(O)c1
IC50 (Leucine aminopeptidase): 24.2 µM (active)
IC50 [14]: 2.18 µM (active)
IC50 [15]: 38.8 µM (active)
AC50 [16]: 0.577 µM (active)
IC50 (Large T antigen): 10.5 µM (active)
IC50 (Heat shock protein HSP90): 17.5816 µM

NC(=O)c1cc(N2CC2)c([N+](=O)[O-])cc1[N+](=O)[O-] [TRETAZICAR]
EC50 [17]: > 120 µM (not active)
IC50 (Danio rerio): 1.2 µM (not active)
EC50 [18]: > 120 µM (not active)
AC50 (Cytochrome P450 3A4): 39.8 µM (inconclusive)
